From patent US5328899A, “NPY peptide analogs” (The Salk Institute for Biological Studies, priority 1992, dated 1994)

Tests used:
[1] = system: conscious rats; assay: Effect on mean arterial blood pressure (MAP) and heart rate after intra-arterial injection in conscious rats; type: in vivo, rat
Protocol: (§1) Saline solutions of the peptides are injected intra-arterially into conscious rats, and arterial pressure is monitored via an indwelling femoral cannula directly coupled to a pressure transducer. […] Control animals receive saline vehicle alone.
Saline solutions of the peptides were administered intraarterially in a 100-μL bolus in an amount equal to about 0.4 mg/Kg body weight.

[2] = system: hypertensive actions of NPY; assay: NPY-induced increase in MAP in animals pretreated with NPY(18-36); type: in vivo, rat; conditions: NPY 1 μg intra-arterially, 3 animals
Protocol: as §1

[3] = system: intracellular Ca++; assay: Elevation of intracellular Ca++ concentrations; type: cell-based; conditions: 100 nM NPY after 100 nM NPY (18-36)

With `CC[C@H](C)[C@H](NC(=O)[C@H](Cc1ccc(O)cc1)NC(=O)[C@H](Cc1c[nH]cn1)NC(=O)[C@H](CCCNC(=N)N)NC(=O)[C@H](CC(C)C)NC(=O)[C@H](C)NC(=O)[C@H](CO)NC(=O)[C@H](Cc1ccc(O)cc1)NC(=O)[C@H](Cc1ccc(O)cc1)NC(=O)[C@H](CCCNC(=N)N)NC(=O)[C@H](C)NC(=O)[C@@H](N)CC(C)C)C(=O)N[C@@H](CC(N)=O)C(=O)N[C@@H](CC(C)C)C(=O)N[C@H](C(=O)N[C@H](C(=O)N[C@@H](CCCNC(=N)N)C(=O)N[C@@H](CCC(N)=O)C(=O)N[C@@H](CCCNC(=N)N)C(=O)N[C@@H](Cc1ccc(O)cc1)C(N)=O)[C@@H](C)O)[C@@H](C)CC` [pNPY(17-36)] the “decrease in MAP at five and ten minutes after administration” value [1] was “significantly decrease MAP”.
For Neuropeptide Y [NPY], the “increase in MAP obtained by NPY administration” value ([2]; animals pretreated with NPY(18-36) 300 μg) was 28±5 mmHg, the “increase in MAP obtained by NPY administration” value ([2]; control animals) was 32±5 mmHg and the “elevation of intracellular Ca++ by NPY after addition of NPY(18-36)” value [3] was “to the same extent as under control conditions”.
